Measurements taken from US20170144985A1, “DIAMINOTRIAZINE COMPOUND USEFUL AS HERBICIDE” (BASF SE, priority 2014, published 2017).

Assays:
Experiment in all cases: greenhouse pre-emergence herbicidal test
APESV = assay type: in vivo, Apera spica-venti; conditions: application rate 0.5 kg/ha, scale from 0 to 100, APESV
Source text: (§1) The seeds of the test plants were sown separately for each species. For the pre-emergence treatment, the active ingredients, which had been suspended or emulsified in water, were applied directly after sowing by means of finely distributing nozzles. The containers were irrigated gently to promote germination and growth and subsequently covered with transparent plastic hoods until the plants had rooted. This cover caused uniform germination of the test plants, unless this had been impaired by the active ingredients. Depending on the species, the plants were kept at 10-25° C. or 20-35° C., respectively. The test period extended over 2 to 4 weeks. During this time, the plants were tended, and their response to the individual treatments was evaluated. Evaluation was carried out using a scale from 0 to 100. 100 means no emergence of the plants, or complete destruction of at least the aerial moieties, and 0 means no damage, or normal course of growth. A moderate herbicidal activity is given at values of at least 60, a good herbicidal activity is given at values of at least 70, and a very good herbicidal activity is given at values of at least 85. The plants used in the greenhouse experiments were of the following species: [table]

AMARE = assay type: in vivo, Amaranthus retroflexus; conditions: application rate 0.5 kg/ha, scale from 0 to 100, AMARE
Source text: as §1

ALOMY = assay type: in vivo, Alopecurus myosuroides; conditions: application rate 0.5 kg/ha, scale from 0 to 100, ALOMY
Source text: as §1

In the case of `Nc1nc(Nc2c(F)c(F)nc(F)c2F)nc(N2CCCC2)n1` [Example 1, 6-pyrrolidin-1-yl-N4-(2,3,5,6-tetrafluoro-4-pyridyl)-1,3,5-triazine-2,4-diamine], the herbicidal activity (APESV) is reported as “very good (a very good herbicidal activity is given at values of at least 85)”, the herbicidal activity (AMARE) is reported as “very good (a very good herbicidal activity is given at values of at least 85)” and the herbicidal activity (ALOMY) is reported as “very good (a very good herbicidal activity is given at values of at least 85)”.
